In patent US20180305458A1, “METHODS AND PHARMACEUTICAL COMPOSITIONS FOR THE TREATMENT OF AUTOIMMUNE INFLAMMATORY DISEASES” (INSERM (INSTITUT NATIONAL DE LA SANTÉ ET DE LA RECHERCHE …, priority 2015, published 2018):

What was measured:
Type in all cases: in vivo
[1] = test system: EAE mice spinal cord; test: Spinal cord histopathology of EAE mice; conditions: 30 days post-immunization, OxA 300 μg IP or RO, grading 0-4, vs PBS
Description: FIG. 3. […] 30 days post-immunization, mice (from the PBS, OxA300 RO, and OxA300 IP groups of FIG. 2, panel C) were sacrificed and spinal cords were harvested, fixed overnight in 4% paraformaldehyde and stored in 70% ethanol. Spinal cords were then embedded in paraffin and cut in […] section. After haematoxylin/eosin (to distinguish cell infiltration) and luxol fast blue (to label myelin) staining, photography was performed at ×1.25 and ×10 magnifications for the spinal cord sections of PBS, OxA300 RO and OxA300 IP mice. […] Histopathology grading was as follows: 0-normal appearance, 1—some infiltrated cells and low demyelination, 2—2 or 3 infiltrated areas and low demyelination, 3—numerous infiltrated areas and strong demyelination, 4—important cell infiltration throughout the tissue with strong demyelination. *P<0.05 (nonparametric t-test, compared to PBS group).

[2] = test system: EAE mice (C57BL/6 wild-type); test: EAE (MOG35-55 induced) clinical score in mice; conditions: orexin A 100 or 300 μg per mouse for 5 days, IP or retro-orbital, before onset or at moderate EAE score, scale 0-5
Description: FIG. 2. […] EAE was induced with 100 μg of MOG35-55 (Myelin Oligodendrocyte Glycoprotein 35-55) as previously described (Proc Natl Acad Sci USA. 106(6):2012-7, 2009) to 9 week old female C57BL/6 wild-type (WT) mice (n=10/group). Panels show clinical signs of EAE scored daily in a blinded fashion for over 30 days on a scale of 0-5 as follows: 0, no detectable clinical signs, 1, waddling gait with limp tail, 2, ataxia with full paralysis of one limb, 3, full paralysis of two limbs, 4, full paralysis of two limbs with important weight loss (>20% of initial weight) and 5, moribund or dead. Then, mice were given:
Panel A, intraperitoneally (IP) either PBS (group PBS IP), 100 μg of orexin A per mouse for 5 days on day 3 (=before the onset, group BOxA100 IP) or at a moderate EAE score (=1.5-2 for group OxA100 IP).
Panel B, intraperitoneally either PBS (group PBS), 100 μg (group OxA100 IP) or 300 μg (group OxA300 IP) of orexin A per mouse for 5 days at a moderate EAE score (=1.5-2).
Panel C, either PBS (group PBS), 300 μg of orexin A per mouse intraperitoneally (group OxA300 IP) or retro-orbitally (RO) (group OxA300 RO) for 5 days at a moderate EAE score (=1.5-2).
The EAE score is shown as mean+/−SEM. *P<0.05 (nonparametric t-test, compared to PBS group).
Orexin A ameliorates the DAI (weight and colitis score) of DSS-induced colitis mice. […]

[3] = test system: IFNγ and IL-17 gene expression; test: Th1 (IFNγ) and Th17 (IL-17) cytokine gene expression in brain of EAE mice, RT-qPCR; conditions: 30 days after EAE induction, OxA 300 μg IP or RO, vs PBS
Description: FIG. 4. […] It was determined 30 days after EAE induction of PBS, OxA300 RO, and OxA300 IP mice (from FIG. 2, panel C) by real time RT-qPCR as previously described (Proc Natl Acad Sci USA. 106(6):2012-7, 2009). *P<0.05 (nonparametric t-test, compared to PBS group).

[4] = test system: DSS-induced colitis mice; test: DSS-induced colitis in mice, DAI score; conditions: 5% DSS orally 7 days, OxA 0.22 μmoles/kg daily intraperitoneal, scale 0 to 4
Text: FIG. 1. Orexin A ameliorates the DAI (weight and colitis score) of DSS-induced colitis mice. Mice were orally treated with 5% DSS for 7 days in the presence or in the absence of daily intraperitoneal injection of OxA (0.22 μmoles/kg). DAI score including weight loss, severity of diarrhea, the presence of blood in the stool, inflammation and edema was estimated using a scale ranging from 0 (no symptoms) to 4 (severe colitis). DSS, dextran sulfate sodium; WT, wild type mice.
Orexin A ameliorates the DAI (weight and colitis score) of DSS-induced colitis mice. As shown in FIG. 1 when DSS-induced colitis mice were treated with OxA, the DAI score was ameliorated (about of 1.5). […] Therefore, orexin A presents potent intrinsic anti-inflammatory properties, capable of modulating the Th/Treg homeostasis during an auto-immune response as aggressive as in a chronic EAE model.

[5] = test system: chronic pancreatitis mice model induced by cerulein; test: Cerulein-induced chronic pancreatitis mice model; conditions: OxA 1.40 μmol/Kg 2 ip injections/week
Text: FIG. 7. Pancreatic lymphocyte infiltration determined by immunostaining of CD45+ cells. Values were expressed as percentage of stained surface. **, p<0.01
FIG. 8. Amylase activity in blood samples of control mice, cerulein-induced mice and cerulein-induced mice treated with OxA. *, p<0.05; ***, p<0.001 and NS=non-significant.
We have investigated the effect of orexin A (OxA) on chronic pancreatitis mice model induced by supraphysiologic doses of cerulein (3 intraperitoneal injections/week at 100 μg/kg). […] In mice treated by OxA (2 intraperitoneal injections/week at 1.40 μmol/Kg) the lesions induced by cerulein improved. OxA-treated mice had lower number of acino-ductal metaplasia.

[6] = test system: regulatory T cell (Treg); test: Regulatory T cells in draining lymph nodes of EAE mice, flow cytometry; conditions: day 30 post-immunization, OxA 300 μg IP or RO, vs PBS
Description: FIG. 5. […] On day 30 post-immunization, draining lymph nodes were harvested from the naïve, PBS, OxA300 RO, and OxA300 IP groups (FIG. 2, panel C). Assessment by flow cytometry was performed by using the mouse regulatory T cell staining kit: lymph node Tregs were defined as CD4^+CD25^+Foxp3^+ cells and proliferative Tregs as CD4^+CD25^+Foxp3^+Ki67^+ cells.
Histograms represent the mean of the percentage (left) and the total number (right) of Tregs and proliferative Tregs (Ki67^+Tregs) for each group. Bars represent the mean+/−SEM of 5 individual mice. *P<0.05 (non parametric t-test, compared to PBS group).

Substance: Orexin A: neuropeptide, endogenous ligand of OX1R and OX2R; SEQ ID NO:2 peplpdccrqk tcscrlyell hgagnhaagi ltlx
- histopathological EAE score [1]: significantly decreases
- histopathological EAE score ([1]; listed as orexin A): drastic reduction
- clinical features of EAE (EAE score) [2]: dramatically alleviate
- clinical features of EAE (EAE score) ([2]; listed as orexin A): significantly ameliorated
- Th1/Th17 pro-inflammatory responses (IFNγ, IL-17 gene expression) in CNS tissues [3]: efficiently suppresses
- Th1/Th17 pro-inflammatory responses (IFNγ, IL-17 gene expression) in CNS tissues ([3]; listed as orexin A): drastic reduction
- DAI score (weight and colitis score) [4]: ameliorates
- DAI score (weight and colitis score) ([4]; listed as OxA): ~1.5
- lesions induced by cerulein (pancreas histology) ([5]; 3 weeks cerulein 100 μg/kg 3 ip injections/week): improved
- amylase activity in blood samples ([5]; cerulein mice): significantly reduced
- number of acino-ductal metaplasia ([5]; cerulein mice): lower number
- pancreatic lymphocyte infiltration (anti-CD45 immunohistochemistry) ([5]; cerulein mice, quantitative imaging analysis, 18% in OxA-untreated mice): 6 % of the pancreatic surface
- pancreatic fibrosis on Picrosirius staining ([5]; cerulein mice, quantitative imaging analysis, 40% in OxA-untreated mice): 12 % of the pancreatic surface
- regulatory T cell (Treg) proportion [6]: increased
- regulatory T cell (Treg) proportion ([6]; listed as orexin A): increase
